Data from US8980226B2, “Aerosolized fosfomycin/aminoglycoside combination for the treatment of bacterial respiratory infections” (Gilead Sciences, Inc., priority 2004, dated 2015).
Read-outs that look alike come from different tables or passages of the source.

How the values were obtained:
Format in all cases: cell-based
[1] = tested on: 100 P. aeruginosa strains isolated from lung sputum samples from cystic fibrosis patients; experiment: MIC50 and MIC90 for 100 P. aeruginosa strains, without mucin; settings: Pseudomonas aeruginosa
Description: (§1) The MICs of fosfomycin alone, tobramycin alone, or combinations of fosfomycin plus tobramycin were determined by the agar-plate dilution method according to NCCLS guidelines (NCCLS, 2003). Bacterial strains were streaked onto Trypic Soy Agar plates (PML Microbiologicals, Wilsonville, Oreg.) containing 5% defibrinated sheep blood (hereafter referred to as blood agar plates) and incubated overnight at 35° C. Two to three bacterial colonies from the overnight cultures were inoculated into 3 mL of sterile normal saline, vortexed briefly, and adjusted to a 0.5 McFarland standard (NCCLS, 2003). The bacterial suspension was diluted 1:40 in sterile normal saline and served as the inoculum. Mueller-Hinton agar plates (hereafter referred to as MHA) were prepared by combining 16 g of agarose (Becton-Dickinson, Sparks, Md.), 22 g of Mueller-Hinton broth powder (Becton-Dickinson, Sparks, Md.), and adjusted to 1 L with distilled water. The agar was sterilized by autoclaving, cooled to 55° C., and supplemented with 25 μg/mL of glucose-6-phosphate (Sigma-Aldrich, St. Louis, Mo.). Twenty-five mL of cooled agar was aliquoted into 50 mL conical tubes and supplemented with appropriate concentrations of antibiotic to achieve concentrations ranging from 0.06 μg/mL to 512 μg/mL. After gently mixing the agar and antibiotic, the suspension was poured into sterile 100 mm petri dishes and allowed to solidify at room temperature. The antibiotic agar plates were inoculated with approximately 2×10^4 CFU/spot with a 48-point inoculator (Sigma-Aldrich, St. Louis, Mo.). The MIC was defined as the lowest concentration of antibiotic (s) that prevented visible growth after incubation for 18-20 hours at 35° C. The efficacy of a particular antibiotic or antibiotic combination on large populations of P. aeruginosa was determined by calculating the MIC50 and MIC90 values. The MIC50 value was defined as the concentration of antibiotic(s) which inhibited 50% of the P. aeruginosa strains. The MIC90 value was defined as the concentration of antibiotic(s) which inhibited 90% of the P. aeruginosa strains (Wiedemann and Grimm, 1996).

P. aeruginosa COR-014 = experiment: Multistep resistance analysis (continuous serial passage); settings: for MIC: Pseudomonas aeruginosa
Description: A single colony of P. aeruginosa COR-014 was inoculated into 5 mL of MHCAB and briefly vortexed. Two-fold serial dilutions of fosfomycin alone covering the range of 1 μg/mL-512 μg/mL, tobramycin alone covering 0.0625 μg/mL-512 μg/mL, and a 9:1 fosfomycin:tobramycin combination covering 0.0625 μg/mL-512 μg/mL were made in CAMHB. Ten microliters of bacterial suspension was pipetted into 3 mL of each antibiotic dilution and incubated statically at 35° C. for 18-24 hours. Tubes with the highest concentration of antibiotic having visible bacterial growth were selected from each antibiotic dilution series and 100 μl of the culture was pipeted into a fresh antibiotic dilution series. Tubes were incubated statically at 35° C. for 18-24 hours. This process was repeated for a total of 28 times. MICs of fosfomycin alone, tobramycin alone, and fosfomycin plus tobramycin were determined for the parent strain and resistant isolates collected after each passage as described in Example 5, Method C.

M. catarrhalis = experiment: MIC, agar-plate dilution method
Description: (§2) “Minimal inhibitory concentration (MIC)” means the lowest concentration of antibiotic (s) that prevents visible growth after incubation for 18-20 hours at 35° C.
(§3) The efficacy of antibiotics and antibiotic combinations against Gram-positive and Gram-negative bacteria representative of species that cause respiratory infections in patients with cystic fibrosis, bronchiectasis, sinusitis, and ventilator-associated pneumonia were evaluated in MIC assays. P. aeruginosa strains were isolated from lung sputum samples collected from cystic fibrosis patients, blood cultures, respiratory tract infections, and skin or soft tissue infections. E. coli, H. influenzae, B. cepacia, S. maltophilia, K. pneumoniae, M. catarrhalis, S. aureus, S. pneumoniae, S. pyogenes, and E. faecalis were isolated from respiratory tract infections. E. coli ATCC 25922, P. aeruginosa ATCC 27853, and S. aureus ATCC 29213 were used as quality control stains.
as §1

S. maltophilia = experiment: MIC, agar-plate dilution method; settings: Stenotrophomonas maltophilia
Description: as §2, §3, §1

H. influenzae = experiment: MIC, agar-plate dilution method
Description: as §2, §3, §1

S. aureus = experiment: MIC, agar-plate dilution method
Description: as §2, §3, §1

P. aeruginosa = experiment: MIC, agar-plate dilution method; settings: Pseudomonas aeruginosa
Description: as §2, §3, §1

E. coli = experiment: MIC, agar-plate dilution method; settings: Escherichia coli
Description: as §2, §3, §1

K. pneumoniae = experiment: MIC, agar-plate dilution method
Description: as §2, §3, §1

E. faecalis = experiment: MIC, agar-plate dilution method; settings: Enterococcus faecalis
Description: as §2, §3, §1

B. cepacia = experiment: MIC, agar-plate dilution method
Description: as §2, §3, §1

S. pneumoniae = experiment: MIC, agar-plate dilution method; settings: Streptococcus pneumoniae
Description: as §2, §3, §1

S. pyogenes = experiment: MIC, agar-plate dilution method; settings: Streptococcus pyogenes
Description: as §2, §3, §1

[2] = 28 days of continuous exposure, clinical P. aeruginosa strain
[3] = COR014, 168 h, read-out: MIC 7d
[4] = COR014, 336 h, read-out: MIC 14d
[5] = COR014, 504 h, read-out: MIC 21d
[6] = COR014, 672 h, read-out: MIC 28d
[7] = COR014, read-out: MIC of the parent strain
[8] = Moraxella catarrhalis, M. catarrhalis COR-109, read-out: MIC
[9] = S. maltophilia COR-083, read-out: MIC
[10] = Haemophilus influenzae, H. influenzae COR-042, read-out: MIC
[11] = Staphylococcus aureus, S. aureus COR-051 (MSSA), read-out: MIC
[12] = Staphylococcus aureus, S. aureus COR-055 (MRSA), read-out: MIC
[13] = P. aeruginosa COR-003, read-out: MIC
[14] = P. aeruginosa COR-021, read-out: MIC
[15] = Klebsiella pneumoniae, K. pneumoniae COR-042, read-out: MIC

SMILES | MIC50 [1] | MIC90 [1] | MIC (P. aeruginosa COR-014; COR014, 0 h, read-out: MIC 0d) | MIC (P. aeruginosa COR-014; [3]) | MIC (P. aeruginosa COR-014; [4]) | MIC (P. aeruginosa COR-014; [5]) | MIC (P. aeruginosa COR-014; [6]) | MIC (P. aeruginosa COR-014; [7]) | MIC (M. catarrhalis; M. catarrhalis COR-113) | MIC (M. catarrhalis; [8]) | MIC (S. maltophilia) | MIC (S. maltophilia; [9]) | MIC (H. influenzae; [10]) | MIC (S. aureus; [11]) | MIC (S. aureus; [12]) | MIC (P. aeruginosa; [13]) | MIC (P. aeruginosa; [14]) | MIC (E. coli; E. coli COR-032) | MIC (E. coli; E. coli COR-039) | MIC (E. coli; E. coli COR-040) | further results
NC[C@H]1O[C@H](O[C@H]2[C@H](O)[C@@H](O[C@H]3O[C@H](CO)[C@@H](O)[C@H](N)[C@H]3O)[C@H](N)C[C@@H]2N)[C@H](N)C[C@@H]1O [Tobramycin] | 2 mg/L | 16 mg/L | 0.5 mg/L | 0.5 mg/L | 0.5 mg/L | 32 mg/L | 64 mg/L | 0.5 mg/L | 8 mg/L | 8 mg/L | 128 mg/L | 512 mg/L | 0.5 mg/L | 0.25 mg/L | 0.25 mg/L | 0.5 mg/L | 64 mg/L | 0.5 mg/L | 0.25 mg/L | 32 mg/L | increase in MIC on continuous exposure (P. aeruginosa COR-014; [2]): 128 fold; MIC (S. maltophilia; S. maltophilia COR-082, read-out: MIC): 4 mg/L; MIC (H. influenzae; H. influenzae COR-049): 0.5 mg/L; MIC (S. aureus; Staphylococcus aureus, S. aureus COR-059): 128 mg/L; MIC (S. aureus; Staphylococcus aureus, S. aureus COR-060 (GISA), read-out: MIC): 64 mg/L; MIC (P. aeruginosa; P. aeruginosa COR-009, read-out: MIC): 2050 mg/L; MIC (P. aeruginosa; P. aeruginosa COR-027, read-out: MIC): 0.5 mg/L; MIC (K. pneumoniae; K. pneumoniae COR-049): 0.5 mg/L; MIC (K. pneumoniae; [15]): 0.5 mg/L; MIC (E. faecalis; E. faecalis COR-099): 512 mg/L; MIC (E. faecalis; E. faecalis COR-103): 8 mg/L; MIC (B. cepacia; Burkholderia cepacia, B. cepacia COR-090): 128 mg/L; MIC (B. cepacia; Burkholderia cepacia, B. cepacia COR-098, read-out: MIC): 64 mg/L; MIC (S. pneumoniae; S. pneumoniae COR-061): 64 mg/L; MIC (S. pneumoniae; S. pneumoniae COR-068): 16 mg/L; MIC (S. pyogenes; S. pyogenes COR-104): 32 mg/L; MIC (S. pyogenes; S. pyogenes COR-105): 64 mg/L
C[C@@H]1O[C@@H]1P(=O)(O)O [Fosfomycin] | 64 mg/L | ≥ 512 mg/L | 16 mg/L | > 512 mg/L | > 512 mg/L | > 512 mg/L | > 512 mg/L | 8 mg/L | 4 mg/L | 4 mg/L | 128 mg/L | 64 mg/L | 8 mg/L | 1 mg/L | 4 mg/L | 16 mg/L | 8 mg/L | 1 mg/L | 64 mg/L | 1 mg/L | development of resistance on continuous exposure (P. aeruginosa COR-014; [2]): rapid and dramatic development of resistance; MIC (S. maltophilia; S. maltophilia COR-087, read-out: MIC): ≥ 512 mg/L; MIC (H. influenzae; Haemophilus influenzae, H. influenzae COR-049): 128 mg/L; MIC (S. aureus; S. aureus COR-060 (GISA)): 2 mg/L; MIC (S. aureus; Staphylococcus aureus, S. aureus COR-059, read-out: MIC): 2 mg/L; MIC (P. aeruginosa; P. aeruginosa COR-009): 1020 mg/L; MIC (P. aeruginosa; P. aeruginosa COR-027): 128 mg/L; MIC (K. pneumoniae; Klebsiella pneumoniae, K. pneumoniae COR-049): 128 mg/L; MIC (K. pneumoniae; [15]): 8 mg/L; MIC (E. faecalis; E. faecalis COR-099): 32 mg/L; MIC (E. faecalis; E. faecalis COR-103): 32 mg/L; MIC (B. cepacia; B. cepacia COR-098): ≧2048 μg/mL; MIC (B. cepacia; Burkholderia cepacia, B. cepacia COR-090, read-out: MIC): ≥ 2050 mg/L; MIC (S. pneumoniae; S. pneumoniae COR-061): 32 mg/L; MIC (S. pneumoniae; S. pneumoniae COR-068): 8 mg/L; MIC (S. pyogenes; S. pyogenes COR-104): 64 mg/L; MIC (S. pyogenes; S. pyogenes COR-105): 16 mg/L
